Reference: ChEMBL document CHEMBL3526083, “Prediction of relative in vivo metabolite exposure from in vitro data using two model drugs: dextromethorphan and omeprazole” (Drug Metab Dispos, 2012)

Experiments:
Liver microsome [1] = test: Drug metabolism in human liver microsomes assessed as 3-hydroxymorphinan formation measured as microsomal fraction unbound; type: ADME
Liver microsome [2] = test: Drug metabolism in human liver microsomes assessed as dextrophan-O-glucuronide formation measured as intrinsic clearance; type: ADME
Liver microsome [3] = test: Drug metabolism in human liver microsomes assessed as dextrophan-O-glucuronide formation measured as intrinsic unbound clearance in presence of 2% BSA; type: ADME
Homo sapiens = test: Ratio of AUC for compound to dexttomethorphan in human treated with 30 to 60 mg, po dexttomethorphan; type: ADME, organism-based; conditions: in vivo
[4] = target: T1, UDP-glucuronosyltransferase 1A4 (Homo sapiens, UniProt P22310); test: Drug metabolism assessed as recombinat UGT1A4 (unknown origin) -mediated dextrophan-O-glucuronide formation; type: ADME
T1 sequence (P22310 whole entry): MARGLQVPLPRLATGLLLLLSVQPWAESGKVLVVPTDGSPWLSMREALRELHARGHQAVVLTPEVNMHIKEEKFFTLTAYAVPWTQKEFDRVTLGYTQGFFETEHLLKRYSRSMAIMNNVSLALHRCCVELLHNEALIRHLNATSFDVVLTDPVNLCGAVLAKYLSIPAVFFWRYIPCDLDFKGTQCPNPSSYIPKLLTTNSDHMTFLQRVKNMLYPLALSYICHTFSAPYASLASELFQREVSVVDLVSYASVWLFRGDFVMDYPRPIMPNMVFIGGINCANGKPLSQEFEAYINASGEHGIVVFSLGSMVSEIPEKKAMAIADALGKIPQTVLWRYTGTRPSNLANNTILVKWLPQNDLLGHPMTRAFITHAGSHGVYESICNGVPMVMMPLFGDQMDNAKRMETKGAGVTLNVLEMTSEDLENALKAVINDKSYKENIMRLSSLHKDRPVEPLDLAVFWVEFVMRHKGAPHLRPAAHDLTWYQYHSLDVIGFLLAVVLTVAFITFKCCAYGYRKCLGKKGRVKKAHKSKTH

[5] = target: T2, UDP-glucuronosyltransferase 1A9 (Homo sapiens, UniProt O60656); test: Drug metabolism assessed as recombinat UGT1A9 (unknown origin) -mediated dextrophan-O-glucuronide formation; type: ADME
T2 sequence (O60656 whole entry): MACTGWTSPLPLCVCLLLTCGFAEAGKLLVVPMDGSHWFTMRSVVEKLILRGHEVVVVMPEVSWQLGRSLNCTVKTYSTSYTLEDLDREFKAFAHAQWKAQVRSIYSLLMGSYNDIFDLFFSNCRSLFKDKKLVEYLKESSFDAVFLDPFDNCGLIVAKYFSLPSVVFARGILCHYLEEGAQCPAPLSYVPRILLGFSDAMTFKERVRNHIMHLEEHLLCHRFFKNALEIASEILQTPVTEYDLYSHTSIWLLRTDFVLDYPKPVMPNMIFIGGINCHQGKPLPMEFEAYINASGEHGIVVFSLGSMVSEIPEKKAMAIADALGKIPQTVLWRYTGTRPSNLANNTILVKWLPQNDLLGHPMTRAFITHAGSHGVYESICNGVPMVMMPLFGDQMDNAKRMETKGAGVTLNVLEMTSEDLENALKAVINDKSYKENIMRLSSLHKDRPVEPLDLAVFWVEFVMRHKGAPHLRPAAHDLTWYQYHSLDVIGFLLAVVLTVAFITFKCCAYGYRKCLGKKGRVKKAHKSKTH

Liver microsome [6] = test: Drug metabolism in human liver microsomes assessed as dextrophan-O-glucuronide formation measured as microsomal fraction unbound in presence of 2% BSA; type: ADME
Liver microsome [7] = test: Drug metabolism in human liver microsomes assessed as 3-hydroxymorphinan formation; type: ADME
Liver microsome [8] = test: Drug metabolism in human liver microsomes assessed as 3-hydroxymorphinan formation measured as plasma fraction unbound; type: ADME, cell-free
[9] = target: T3, UDP-glucuronosyltransferase 1A6 (Homo sapiens, UniProt P19224); test: Drug metabolism assessed as recombinat UGT1A6 (unknown origin) -mediated dextrophan-O-glucuronide formation; type: ADME
T3 sequence (P19224 whole entry): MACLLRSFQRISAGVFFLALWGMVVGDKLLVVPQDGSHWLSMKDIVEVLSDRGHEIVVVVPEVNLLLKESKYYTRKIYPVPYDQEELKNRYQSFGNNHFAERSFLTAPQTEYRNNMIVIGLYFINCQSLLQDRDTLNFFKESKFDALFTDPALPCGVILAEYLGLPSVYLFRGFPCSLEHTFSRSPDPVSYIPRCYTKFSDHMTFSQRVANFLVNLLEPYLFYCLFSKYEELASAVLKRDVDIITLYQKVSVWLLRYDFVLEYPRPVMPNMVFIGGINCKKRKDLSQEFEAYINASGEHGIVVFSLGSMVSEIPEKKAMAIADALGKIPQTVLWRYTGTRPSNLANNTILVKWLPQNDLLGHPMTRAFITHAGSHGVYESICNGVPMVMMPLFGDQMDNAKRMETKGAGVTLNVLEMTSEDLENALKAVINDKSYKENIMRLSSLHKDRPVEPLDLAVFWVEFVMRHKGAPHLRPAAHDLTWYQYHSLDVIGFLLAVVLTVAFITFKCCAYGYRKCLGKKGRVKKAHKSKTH

Liver microsome [10] = test: Drug metabolism in human liver microsomes assessed as dextrophan-O-glucuronide formation measured as plasma fraction unbound in presence of 2% BSA; type: ADME
[11] = target: T4, UDP-glucuronosyltransferase 1A8 (Homo sapiens, UniProt Q9HAW9); test: Drug metabolism assessed as recombinat UGT1A8 (unknown origin) -mediated dextrophan-O-glucuronide formation; type: ADME
T4 sequence (Q9HAW9 whole entry): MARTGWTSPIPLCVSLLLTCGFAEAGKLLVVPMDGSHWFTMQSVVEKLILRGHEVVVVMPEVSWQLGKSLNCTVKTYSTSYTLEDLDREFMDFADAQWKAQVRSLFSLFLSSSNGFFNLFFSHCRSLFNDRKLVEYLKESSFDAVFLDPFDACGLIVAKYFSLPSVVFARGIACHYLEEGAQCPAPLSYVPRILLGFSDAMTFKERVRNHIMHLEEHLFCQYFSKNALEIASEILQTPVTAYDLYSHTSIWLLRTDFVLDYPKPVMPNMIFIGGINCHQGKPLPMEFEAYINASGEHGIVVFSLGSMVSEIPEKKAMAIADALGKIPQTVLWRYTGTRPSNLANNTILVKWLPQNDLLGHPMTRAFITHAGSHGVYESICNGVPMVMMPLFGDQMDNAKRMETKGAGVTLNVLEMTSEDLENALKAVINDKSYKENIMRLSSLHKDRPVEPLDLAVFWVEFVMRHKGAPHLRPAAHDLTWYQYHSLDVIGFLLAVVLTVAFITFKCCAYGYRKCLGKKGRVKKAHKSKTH

Work on `CN1CC[C@@]23CCCC[C@@H]2[C@@H]1Cc1ccc(O)cc13` [DEXTRORPHAN] yielded a Fu (Liver microsome [1]) of 1, a CLH (Liver microsome [2]) of 2.9 µL/min/mg and a CL free (Liver microsome [3]) of 12 µL/min/mg. The “Ratio AUC” value (Homo sapiens) was 0.61, the Drug metabolism [4] was “metabolite_not_detected” and the Drug metabolism [5] was “metabolite_not_detected”. The Fu (Liver microsome [6]) was 0.88, the Km (Liver microsome [7]) was 910 µM and the Fu (Liver microsome [8]) was 0.55. For the same compound, the Drug metabolism [9] was “metabolite_not_detected”, the Fu (Liver microsome [10]) was 0.55 and the Drug metabolism [11] was “metabolite_not_detected”.
